What is called EC50 is the concentration giving half of the maximal effect.

Molecules are shown by their SMILES. Where a SMILES comes first, the peptide text is derived from it. [ ]: non-standard residue; d: D form. The star is where a group is joined. Ala(3-Me-diazirin-3-yl) = CC1(C[C@H](N)C(=O)O)N=N1; 2Nal = N[C@@H](Cc1ccc2ccccc2c1)C(=O)O; Palmitoyl = CCCCCCCCCCCCCCCC(=O)*; Cit = NC(=O)NCCC[C@H](N)C(=O)O; Nle = CCCC[C@H](N)C(=O)O; Pra = C#CC[C@H](N)C(=O)O

The assay deals with T1, CXCR4 (Homo sapiens, UniProt P61073).
T1 construct: CCRF-CEM cells, a human T-cell ALL line that endogenously expresses CXCR4; endogenous in cells; host or cells: CCRF-CEM (human T-cell acute lymphoblastic leukemia line)
T1 sequence (P61073 whole entry): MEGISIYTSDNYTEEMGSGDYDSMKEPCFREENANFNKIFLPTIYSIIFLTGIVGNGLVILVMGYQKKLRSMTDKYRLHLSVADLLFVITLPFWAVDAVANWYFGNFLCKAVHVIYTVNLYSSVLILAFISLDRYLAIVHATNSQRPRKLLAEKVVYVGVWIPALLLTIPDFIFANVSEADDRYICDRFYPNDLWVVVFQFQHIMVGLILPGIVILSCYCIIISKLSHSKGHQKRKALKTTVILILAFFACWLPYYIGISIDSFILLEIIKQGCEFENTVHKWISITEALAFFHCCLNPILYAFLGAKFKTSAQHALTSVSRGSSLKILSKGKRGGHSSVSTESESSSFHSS
The assay is described as follows: Calcium flux assay, agonist mode, Flexstation (CCRF-CEM cells). Type of assay: cell-based. Particulars: for Emax: CCRF-CEM, percent of maximum response compared with SDF-1α, read-out: % Intrinsic Activity. From the text: Calcium Flux Assay is one of the most popular cell-based GPCR functional assays. It most often uses calcium sensing fluorescent dyes such as fura2 AM, fluo-4 and Calcium-4 to measure changes in intracellular calcium concentration. It is used mainly to detect GPCR signaling via Gαq subunit. Activation of these Gq-coupled GPCRs leads to activation of phospholipase C, which subsequently leads to increase in inositol phosphate production. IP3 receptors on endoplasmic reticulum sense the change then release calcium into cytoplasm. Intracellular calcium binding to the fluorescent dyes can be detected by instruments that quantify fluorescent intensities, such as FLIPR Tetra, Flexstation (MDS) and FDSS (Hamamatsu). In addition, to assess Gq-couple receptor signaling, a calcium flux assay can also be used to study Gs and Gi couple receptors by co-expressing CNG (cyclic nucleotide gated calcium channel) or chimeric G-proteins (Gqi5, Gsi5 for example). Activation of some Gi-coupled receptors can also be detected by calcium flux assay via Gβγ mediated phospholipase C activation.
The calcium flux assay was used to assess the test compounds' ability to activate the CXCR4 receptor in CCRF-CEM cells (human T lymphoblasts from acute lymphoblastic leukemia). […] After dye loading by incubating with Calcium-4 dye at 37° C. for 1 hour, cell plates were read at 37° C. using the using the Flexstation 3 workstation. Receptor activation was assessed by measuring changes in fluorescent intensity after the addition of the test compounds or the reference agonist SDF-1α on the using the Flexstation 3 workstation. EC50
and percent intrinsic actively were derived from the data collected. Intrinsic activity refers to the efficacy of the test compound and is calculated as the percent of maximum response compared with the response of the reference standard (i.e., natural agonist, SDF-1α).
On the technique in general: Calcium assays in cells follow changes in intracellular calcium, usually with a dye or a luminescent sensor.

`CCCCCCCCCCCCCCCC(=O)N[C@@H](CCSC)C(=O)NCC(=O)N[C@@H](Cc1ccc(O)cc1)C(=O)N[C@@H](CCC(N)=O)C(=O)N[C@@H](CCCCN)C(=O)N[C@@H](CCCCN)C(=O)N[C@@H](CC(C)C)C(=O)N[C@@H](CCCNC(=N)N)C(=O)N[C@@H](CO)C(=O)N[C@@H](CCSC)C(=O)N[C@H](C(=O)N[C@@H](CC(=O)O)C(=O)N[C@@H](CCCCN)C(=O)N[C@@H](Cc1ccc2ccccc2c1)C(=O)N[C@@H](CCCNC(=N)N)C(=O)N[C@@H](CC(C)C)C(N)=O)[C@@H](C)O` [Compound 16] (Palmitoyl-MGYQKKLRSMTDK[2Nal]RL-NH2; C-terminus assumed): the Emax worked out at 34.4%. Take `CCCCCCCCCCCCCCCC(=O)NCC(=O)NCC(=O)N[C@@H](Cc1ccc(O)cc1)C(=O)N[C@@H](CCC(N)=O)C(=O)N[C@@H](CCCCN)C(=O)N[C@@H](CCCCN)C(=O)N[C@@H](CC(C)C)C(=O)N[C@@H](CCCNC(=N)N)C(=O)N1CCC[C@@H]1C(=O)N[C@@H](C)C(=O)N[C@H](C(=O)N[C@@H](CC(=O)O)C(=O)N[C@@H](CCCCN)C(=O)N[C@@H](Cc1ccc(O)cc1)C(=O)N[C@@H](CCCNC(=N)N)C(=O)N[C@@H](CC(C)C)C(N)=O)[C@@H](C)O` [Compound 27] (Palmitoyl-GGYQKKLR[dP]ATDKYRL-NH2; C-terminus assumed): the Emax worked out at 111%. The same measure, in the same setting: in the case of `CCCCCCCCCCCCCCCC(=O)NCC(=O)NCC(=O)N[C@@H](Cc1ccc(O)cc1)C(=O)N[C@@H](CCC(N)=O)C(=O)N[C@@H](CCCCN)C(=O)N[C@@H](CCCCN)C(=O)N[C@@H](CC(C)C)C(=O)N[C@@H](CCCNC(=N)N)C(=O)N[C@H](C(=O)N[C@@H](C)C(=O)N[C@H](C(=O)N[C@@H](CC(=O)O)C(=O)N[C@@H](CCCCN)C(=O)N[C@@H](Cc1ccc(O)cc1)C(=O)N[C@@H](CCCNC(=N)N)C(=O)N[C@@H](CC(C)C)C(N)=O)[C@@H](C)O)[C@@H](C)O` [Compound 41] (Palmitoyl-GGYQKKLRTATDKYRL-NH2; C-terminus assumed) it was 149%; in that of `CCCCCCCCCCCCCCCC(=O)NCC(=O)NCC(=O)N[C@@H](Cc1ccc(O)cc1)C(=O)N[C@@H](CCC(N)=O)C(=O)N[C@@H](CCCCN)C(=O)N[C@@H](CCCCN)C(=O)N[C@@H](CC(C)C)C(=O)N[C@@H](CCCNC(=N)N)C(=O)N[C@@H](CO)C(=O)N[C@@H](C)C(=O)N[C@H](C(=O)N[C@@H](CC(=O)O)C(=O)N[C@@H](CCCCN)C(=O)N[C@@H](Cc1ccc(O)cc1)C(=O)N[C@@H](CCCNC(=N)N)C(=O)N[C@@H](CC(C)C)C(N)=O)[C@@H](C)O` [Compound 25] (Palmitoyl-GGYQKKLRSATDKYRL-NH2; C-terminus assumed), 89.4%. As to `CCCCCCCCCCCCCCCC(=O)NCC(=O)NCC(=O)N[C@@H](Cc1ccc(O)cc1)C(=O)N[C@@H](CCC(N)=O)C(=O)N[C@@H](CCCCN)C(=O)N[C@@H](CCCCN)C(=O)N[C@@H](CC1(C)N=N1)C(=O)N[C@@H](CCCNC(=N)N)C(=O)N[C@@H](CO)C(=O)N[C@@H](C)C(=O)N[C@H](C(=O)N[C@@H](CC(=O)O)C(=O)N[C@@H](CCCCN)C(=O)N[C@@H](Cc1ccc(O)cc1)C(=O)N[C@@H](CCCNC(=N)N)C(=O)N[C@@H](CC(C)C)C(N)=O)[C@@H](C)O` [Compound 37] (Palmitoyl-GGYQKK[Ala(3-Me-diazirin-3-yl)]RSATDKYRL-NH2; C-terminus assumed), the Emax is 85.7%. Further, where the note is “calcium flux”, the EC50 is 71.1 nM. As for `CCCCCCCCCCCCCCCC(=O)N[C@@H](CCSC)C(=O)NCC(=O)N[C@@H](Cc1ccc(O)cc1)C(=O)N[C@@H](CCC(N)=O)C(=O)N[C@@H](CCCCN)C(=O)N[C@@H](CCCCN)C(=O)N[C@@H](CC(C)C)C(=O)N[C@@H](CCCNC(=N)N)C(=O)N[C@@H](CO)C(=O)N[C@@H](Cc1c[nH]cn1)C(=O)N[C@H](C(=O)N[C@@H](CC(=O)O)C(=O)N[C@@H](CCCCN)C(=O)N[C@@H](Cc1ccc(O)cc1)C(=O)N[C@@H](CCCNC(=N)N)C(=O)N[C@@H](CC(C)C)C(N)=O)[C@@H](C)O` [Compound 18] (Palmitoyl-MGYQKKLRSHTDKYRL-NH2; C-terminus assumed), the Emax is 93.4%. Still for that read-out and setting: the value for `CCCCCCCCCCCCCCCC(=O)N[C@@H](COC)C(=O)NCC(=O)N[C@@H](Cc1ccc(O)cc1)C(=O)N[C@@H](CCC(N)=O)C(=O)N[C@@H](CCCCN)C(=O)N[C@@H](CCCCN)C(=O)N[C@@H](CC(C)C)C(=O)N[C@@H](CCCNC(=N)N)C(=O)N[C@@H](CO)C(=O)N[C@@H](COC)C(=O)N[C@H](C(=O)N[C@@H](CC(=O)O)C(=O)N[C@@H](CCCCN)C(=O)N[C@@H](Cc1ccc(O)cc1)C(=O)N[C@@H](CCCNC(=N)N)C(=O)N[C@@H](CC(C)C)C(N)=O)[C@@H](C)O` [Compound 23] (Palmitoyl-S(Me)GYQKKLRSS(Me)TDKYRL-NH2) was 87.2%; that for `CCCCCCCCCCCCCCCC(=O)N[C@@H](CS)C(=O)NCC(=O)N[C@@H](Cc1ccc(O)cc1)C(=O)N[C@@H](CCC(N)=O)C(=O)N[C@@H](CCCCN)C(=O)N[C@@H](CCCCN)C(=O)N[C@@H](CC(C)C)C(=O)N[C@@H](CCCNC(=N)N)C(=O)N[C@@H](CO)C(=O)N[C@@H](C)C(=O)N[C@H](C(=O)N[C@@H](CC(=O)O)C(=O)N[C@@H](CCCCN)C(=O)N[C@@H](Cc1ccc(O)cc1)C(=O)N[C@@H](CCCNC(=N)N)C(=O)N[C@@H](CC(C)C)C(N)=O)[C@@H](C)O` [Compound 30] (Palmitoyl-CGYQKKLRSATDKYRL-NH2; C-terminus assumed) was 95.3%; that for `CCCCCCCCCCCCCCCC(=O)NCC(=O)NCC(=O)N[C@@H](Cc1ccc(O)cc1)C(=O)N[C@@H](CCC(N)=O)C(=O)N[C@@H](CCCCN)C(=O)N[C@@H](CCCCN)C(=O)N[C@H](CC(C)C)C(=O)N[C@@H](CCCNC(=N)N)C(=O)N[C@@H](CO)C(=O)N[C@@H](C)C(=O)N[C@H](C(=O)N[C@@H](CC(=O)O)C(=O)N[C@@H](CCCCN)C(=O)N[C@@H](Cc1ccc(O)cc1)C(=O)N[C@@H](CCCNC(=N)N)C(=O)N[C@@H](CC(C)C)C(N)=O)[C@@H](C)O` [Compound 39] (Palmitoyl-GGYQKK[dL]RSATDKYRL-NH2; C-terminus assumed) was 104%. Still for that read-out and setting: in the case of `CCCCCCCCCCCCCCCC(=O)N[C@@H](CCSC)C(=O)NCC(=O)N[C@@H](Cc1ccc(O)cc1)C(=O)N[C@@H](CCC(N)=O)C(=O)N[C@@H](CCCCN)C(=O)N[C@@H](CCCCN)C(=O)N[C@@H](CC(C)C)C(=O)N[C@@H](CCCNC(=N)N)C(=O)N[C@@H](CO)C(=O)N[C@@H](CCSC)C(=O)N[C@H](C(=O)N[C@@H](CC(=O)O)C(=O)N[C@@H](CCCCN)C(=O)N[C@@H](Cc1ccc(O)cc1)C(=O)N[C@@H](CCCNC(N)=O)C(=O)N[C@@H](CC(C)C)C(N)=O)[C@@H](C)O` [Compound 14] (Palmitoyl-MGYQKKLRSMTDKY[Cit]L-NH2) it was 3.61%.

For `CCCCCCCCCCCCCCCC(=O)NCC(=O)N[C@@H](Cc1ccc(O)cc1)C(=O)N[C@@H](CCC(N)=O)C(=O)N[C@@H](CCCCN)C(=O)N[C@@H](CCCCN)C(=O)N[C@@H](CC(C)C)C(=O)N[C@@H](CCCNC(=N)N)C(=O)N[C@@H](CO)C(=O)N[C@@H](CCCC)C(=O)N[C@H](C(=O)N[C@@H](CC(=O)O)C(=O)N[C@@H](CCCCN)C(=O)N[C@@H](Cc1ccc(O)cc1)C(=O)N[C@@H](CCCNC(=N)N)C(=O)N[C@H](C(N)=O)[C@@H](C)CC)[C@@H](C)O` [Compound 20] (Palmitoyl-GYQKKLRS[Nle]TDKYRI-NH2; C-terminus assumed), the Emax turned out to be 62.5%.

On to `C#CC[C@H](NC(=O)CCCCCCCCCCCCCCC)C(=O)NCC(=O)N[C@@H](Cc1ccc(O)cc1)C(=O)N[C@@H](CCC(N)=O)C(=O)N[C@@H](CCCCN)C(=O)N[C@@H](CCCCN)C(=O)N[C@@H](CC(C)C)C(=O)N[C@@H](CCCNC(=N)N)C(=O)N[C@@H](CO)C(=O)N[C@@H](CCSC)C(=O)N[C@H](C(=O)N[C@@H](CC(=O)O)C(=O)N[C@@H](CCCCN)C(=O)N[C@@H](Cc1ccc(O)cc1)C(=O)N[C@@H](CCCNC(=N)N)C(=O)N[C@@H](CC(C)C)C(N)=O)[C@@H](C)O` [Compound 24] (Palmitoyl-[Pra]GYQKKLRSMTDKYRL-NH2; C-terminus assumed), for which the Emax stood at 76.6%. On the same count and under the same terms, the value for `CCCCCCCCCCCCCCCC(=O)N[C@@H](CCSC)C(=O)NCC(=O)N[C@@H](Cc1ccc(O)cc1)C(=O)N[C@@H](CCC(N)=O)C(=O)N[C@@H](CCCCN)C(=O)N[C@@H](CCCCN)C(=O)N[C@@H](CC(C)C)C(=O)N[C@@H](CCCNC(=N)N)C(=O)N[C@@H](CO)C(=O)N[C@@H](CCSC)C(=O)N[C@H](C(=O)N[C@@H](CC(=O)O)C(=O)N[C@@H](CCCCN)C(=O)N[C@@H](Cc1ccccc1)C(=O)N[C@@H](CCCNC(=N)N)C(=O)N[C@@H](CC(C)C)C(N)=O)[C@@H](C)O` [Compound 15] (Palmitoyl-MGYQKKLRSMTDKFRL-NH2; C-terminus assumed) was 81.5%.

(Values after patent US9155795B2, “CXCR4 receptor compounds” (Anchor Therapeutics, Inc., priority 2010, dated 2015).)
